Among the data in US10266526B2, “Substituted 1,2,3-triazoles as SMYD inhibitors for treating cancer” (EPIZYME, INC., priority 2014, dated 2019) are IC50 values, retold here.

Bounds are passed on as bounds.

This assay has as its target SMYD3 (Homo sapiens (Human), UniProt Q9H7B4). In words: SMYD3 biochemical assay (SMYD3 enzyme assay on MEKK2 protein substrate, 3H-SAM scintillation proximity assay). The following applies: read-out: SMYD3 Biochem IC50. Summed up:
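Detection used scintillation proximity beads to capture ³H-methylated GST-MEKK2 after quench with 100 uM final cold SAM. The reaction was started by SAM/MEKK2 addition after a 30 min RT compound–enzyme preincubation. Enzyme was tag-free full-length human SMYD3 from E. coli, in buffer of 25 mM Tris-Cl pH 8.0, 1 mM TCEP, 0.005% BSG, 0.005% Tween 20.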

Chain of SMYD3 (Q9H7B4 whole entry): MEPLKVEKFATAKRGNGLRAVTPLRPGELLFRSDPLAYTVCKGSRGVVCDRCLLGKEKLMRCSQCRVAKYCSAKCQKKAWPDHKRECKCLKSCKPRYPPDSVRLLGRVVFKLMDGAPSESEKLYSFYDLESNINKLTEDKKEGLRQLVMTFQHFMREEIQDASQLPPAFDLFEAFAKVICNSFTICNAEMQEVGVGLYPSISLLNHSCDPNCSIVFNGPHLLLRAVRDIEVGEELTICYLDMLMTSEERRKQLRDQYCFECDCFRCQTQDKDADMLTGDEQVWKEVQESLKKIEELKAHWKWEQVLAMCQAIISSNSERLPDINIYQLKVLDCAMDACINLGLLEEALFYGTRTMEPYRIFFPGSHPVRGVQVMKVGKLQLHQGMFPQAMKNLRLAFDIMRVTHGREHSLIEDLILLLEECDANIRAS

In the case of `CC(=O)Nc1ccc(C(=O)NC(C)C2CCN(C(=O)[C@H](C)N)CC2)nc1` (stereo partly drawn) [compound 462, N-(1-(1-(L-alanyl)piperidin-4-yl)ethyl)-5-acetamidopicolinamide], the IC50 was more than 100 µM. As to `CC(=O)Nc1ccc(C(=O)N[C@H]2CC[C@H](NC(=O)CCN)CC2)nc1` [compound 463, 5-acetamido-N-((1r,4r)-4-(3-aminopropanamido)cyclohexyl)picolinamide], the concentration for half-maximal inhibition (IC50) is more than 100 µM.

For the compound `CC(NC(=O)c1noc(C2CC2)n1)C1CCN(C(=O)[C@H](C)N)CC1` (stereo partly drawn) [compound 464, N-(1-(1-(L-alanyl)piperidin-4-yl)ethyl)-5-cyclopropyl-1,2,4-oxadiazole-3-carboxamide], the IC50 amounted to 32.7 µM. With `NCCC(=O)N[C@H]1CC[C@H](NC(=O)Cc2ccc3c(c2)CC(=O)N3)CC1` [compound 465, 3-amino-N-((1r,4r)-4-(2-(2-oxoindolin-5-yl)acetamido)cyclohexyl)propanamide] the figure was 38.8 µM; with `CC(NC(=O)Cc1ccc2c(c1)CC(=O)N2)C1CCN(C(=O)[C@H](C)N)CC1` (stereo partly drawn) [compound 466, N-(1-(1-(L-alanyl)piperidin-4-yl)ethyl)-2-(2-oxoindolin-5-yl)acetamide], 60 µM. With `NCCC(=O)N[C@H]1CC[C@H](C(=O)Nc2ccc3c(c2)CC(=O)N3)CC1` [compound 467, (1r,4r)-4-(3-aminopropanamido)-N-(2-oxoindolin-5-yl)cyclohexane-1-carboxamide] the figure was 4.46 µM; with `CC(C)(CNC(=O)CCN)CNS(=O)(=O)c1ccc2c(c1)CC(=O)N2` [compound 468, 3-amino-N-(2,2-dimethyl-3-((2-oxoindoline)-5-sulfonamido)propyl)propanamide], 18.3 µM; with `CC(NC(=O)c1ccc2c(c1)CNC2=O)C1CCN(C(=O)[C@H](C)N)CC1` (stereo partly drawn) [compound 469, N-(1-(1-(L-alanyl)piperidin-4-yl)ethyl)-1-oxoisoindoline-5-carboxamide], more than 100 µM. Regarding `N[C@H]1CC[C@H](NC(=O)c2ccc3c(c2)C(=O)C(=O)N3)CC1` [compound 470, N-((1r,4r)-4-aminocyclohexyl)-2,3-dioxoindoline-5-carboxamide], the IC50 turned out to be 7.46 µM. With `NCCC(=O)N[C@H]1CC[C@H](NC(=O)c2ccc3c(c2)CC(=O)N3)CC1` [compound 471, N-((1r,4r)-4-(3-aminopropanamido)cyclohexyl)-2-oxoindoline-5-carboxamide] the figure was 0.61 µM; with `CC(NC(=O)c1ccc(-n2cncn2)cc1)C1CCN(C(=O)[C@H](C)N)CC1` (stereo partly drawn) [compound 472, N-(1-(1-(L-alanyl)piperidin-4-yl)ethyl)-4-(1H-1,2,4-triazol-1-yl)benzamide], more than 100 µM. With `NCCC(=O)N[C@H]1CC[C@H](NC(=O)c2ccc(-n3cncn3)cc2)CC1` [compound 473, N-((1r,4r)-4-(3-aminopropanamido)cyclohexyl)-4-(1H-1,2,4-triazol-1-yl)benzamide] the figure was 53.1 µM; with `CC(NC(=O)c1cc2ccccc2nc1O)C1CCN(C(=O)[C@H](C)N)CC1` (stereo partly drawn) [compound 474, N-(1-(1-(L-alanyl)piperidin-4-yl)ethyl)-2-hydroxyquinoline-3-carboxamide], 22.1 µM; with `N[C@H]1CC[C@H](NC(=O)c2cc3ccccc3nc2O)CC1` [compound 475, N-((1r,4r)-4-aminocyclohexyl)-2-hydroxyquinoline-3-carboxamide], 22.2 µM. With `CC(NC(=O)Cc1cccc(C(F)(F)F)c1)C1CCN(C(=O)[C@H](C)N)CC1` (stereo partly drawn) [compound 476, N-(1-(1-(L-alanyl)piperidin-4-yl)ethyl)-2-(3-(trifluoromethyl)phenyl)acetamide] the figure was 51.1 µM.

For the compound `NCCC(=O)N[C@H]1CC[C@H](NC(=O)Cc2cccc(C(F)(F)F)c2)CC1` [compound 477, 3-amino-N-((1r,4r)-4-(2-(3-(trifluoromethyl)phenyl)acetamido)cyclohexyl)propanamide], the IC50 came out at 22.8 µM. With `Cc1nc2ccccc2c(C(=O)N[C@H]2CC[C@H](NC(=O)CCN)CC2)c1N` [compound 478, 3-amino-N-((1r,4r)-4-(3-aminopropanamido)cyclohexyl)-2-methylquinoline-4-carboxamide] the figure was 31.6 µM; with `NCCC(=O)N[C@H]1CC[C@H](NC(=O)c2cc3cccc(O)c3cc2O)CC1` [compound 479, N-((1r,4r)-4-(3-aminopropanamido)cyclohexyl)-3,5-dihydroxy-2-naphthamide], 5.02 µM; with `N[C@H]1CC[C@H](NC(=O)c2ncccc2O)CC1` [compound 480, N-((1r,4r)-4-aminocyclohexyl)-3-hydroxypicolinamide], more than 100 µM.

On to `NCCC(=O)N[C@H]1CC[C@H](NC(=O)C2=NNC(=O)CC2)CC1` [compound 481, N-((1r,4r)-4-(3-aminopropanamido)cyclohexyl)-6-oxo-1,4,5,6-tetrahydropyridazine-3-carboxamide], for which the IC50 is 15.1 µM. With `NCCC(=O)N[C@H]1CC[C@H](NC(=O)/C=C/c2c[nH]cn2)CC1` [compound 482, (E)-N-((1r,4r)-4-(3-aminopropanamido)cyclohexyl)-3-(1H-imidazol-4-yl)acrylamide] the figure was 71.1 µM; with `NCCC(=O)N1CCC(CC(=O)N2CCC3NC(=O)CC3C2)CC1` (stereo not shown) [compound 483, 5-(2-(1-(3-aminopropanoyl)piperidin-4-yl)acetyl)octahydro-2H-pyrrolo[3,2-c]pyridin-2-one], 10.2 µM.

On to `N[C@H]1CC[C@H](NC(=O)c2noc(C3CC3)n2)CC1` [compound 484, N-((1r,4r)-4-aminocyclohexyl)-5-cyclopropyl-1,2,4-oxadiazole-3-carboxamide], for which the IC50 is 85.7 µM. The same measure for `NCCC(=O)N[C@H]1CC[C@H](NC(=O)c2noc(C3CC3)n2)CC1` [compound 485, N-((1r,4r)-4-(3-aminopropanamido)cyclohexyl)-5-cyclopropyl-1,2,4-oxadiazole-3-carboxamide]: 12.9 µM. The same measure for `CC(C)(CNC(=O)CN)CNS(=O)(=O)c1ccc2c(c1)CC(=O)N2` [compound 486, 2-amino-N-(2,2-dimethyl-3-((2-oxoindoline)-5-sulfonamido)propyl)acetamide]: 18.8 µM; for `N[C@H]1CC[C@H](NC(=O)c2ccc3c(c2)CNC3=O)CC1` [compound 487, N-((1r,4r)-4-aminocyclohexyl)-1-oxoisoindoline-5-carboxamide]: 37.9 µM. With `CC(NC(=O)c1ccc2c(c1)C(=O)C(=O)N2)C1CCN(C(=O)[C@H](C)N)CC1` (stereo partly drawn) [compound 488, N-(1-(1-(L-alanyl)piperidin-4-yl)ethyl)-2,3-dioxoindoline-5-carboxamide] the figure was 14.1 µM. With `Cc1nc2ccccc2c(C(=O)NC(C)C2CCN(C(=O)[C@H](C)N)CC2)c1N` (stereo partly drawn) [compound 489, N-(1-(1-(L-alanyl)piperidin-4-yl)ethyl)-3-amino-2-methylquinoline-4-carboxamide], the IC50 was 31.6 µM. Take `N[C@H]1CC[C@H](NC(=O)c2cc3c(cc2Cl)NC(=O)C3)CC1` [compound 492, N-((1r,4r)-4-aminocyclohexyl)-6-chloro-2-oxoindoline-5-carboxamide]: the IC50 worked out at 1.59 µM. The same measure for `N[C@H]1CC[C@H](NC(=O)c2cncnc2O)CC1` [compound 493, N-((1r,4r)-4-aminocyclohexyl)-4-hydroxypyrimidine-5-carboxamide]: more than 50 µM; for `CC(NC(=O)/C=C/c1c[nH]cn1)C1CCN(C(=O)[C@H](C)N)CC1` (stereo partly drawn) [compound 494, (E)-N-(1-(1-(L-alanyl)piperidin-4-yl)ethyl)-3-(1H-imidazol-4-yl)acrylamide]: more than 100 µM; for `N[C@H]1CC[C@H](NC(=O)/C=C/c2c[nH]cn2)CC1` [compound 495, (E)-N-((1r,4r)-4-aminocyclohexyl)-3-(1H-imidazol-4-yl)acrylamide]: more than 100 µM. Turning to `CC(NC(=O)c1cc2cn[nH]c2cn1)C1CCN(C(=O)[C@H](C)N)CC1` (stereo partly drawn) [compound 496, N-(1-(1-(L-alanyl)piperidin-4-yl)ethyl)-1H-pyrazolo[3,4-c]pyridine-5-carboxamide], the IC50 turned out to be 6.57 µM.

As for `N[C@H]1CC[C@H](NC(=O)c2cc3cn[nH]c3cn2)CC1` [compound 497, N-((1r,4r)-4-aminocyclohexyl)-1H-pyrazolo[3,4-c]pyridine-5-carboxamide], the IC50 was determined as 35.7 µM. With `CC(NC(=O)c1nc2ccc(F)cc2s1)C1CCN(C(=O)[C@H](C)N)CC1` (stereo partly drawn) [compound 498, N-(1-(1-(L-alanyl)piperidin-4-yl)ethyl)-6-fluorobenzo[d]thiazole-2-carboxamide] the figure was 51 µM. The same measure for `NCCC(=O)N[C@H]1CC[C@H](NC(=O)c2nc3ccc(F)cc3s2)CC1` [compound 499, N-((1r,4r)-4-(3-aminopropanamido)cyclohexyl)-6-fluorobenzo[d]thiazole-2-carboxamide]: 86.3 µM. The same measure for `N[C@H]1CC[C@H](NC(=O)c2nc3ccc(F)cc3s2)CC1` [compound 500, N-((1r,4r)-4-aminocyclohexyl)-6-fluorobenzo[d]thiazole-2-carboxamide]: more than 100 µM. For the compound `NC(=O)Cn1cc(C(=O)N[C@H]2CC[C@H](N)CC2)nn1` [compound 501, 1-(2-amino-2-oxoethyl)-N-((1r,4r)-4-aminocyclohexyl)-1H-1,2,3-triazole-4-carboxamide], the IC50 is 50 µM. With `N[C@H]1CC[C@H](NC(=O)c2ncc[nH]2)CC1` [compound 502, N-((1r,4r)-4-aminocyclohexyl)-1H-imidazole-2-carboxamide] the figure was more than 100 µM; with `NCCC(=O)N[C@H]1CC[C@H](NC(=O)c2ccc3c(c2)CNC3=O)CC1` [compound 503, N-((1r,4r)-4-(3-aminopropanamido)cyclohexyl)-1-oxoisoindoline-5-carboxamide], more than 100 µM.
